Test results published in ChEMBL document CHEMBL5042556, “Lead Optimization to Advance Protease-Activated Receptor-1 Antagonists in Early Discovery” (J Med Chem, 2022).
Each block holds one compound with its values, some of them ahead of it.

How the values were obtained:
[1] = target: T1, Proteinase-activated receptor 1 (Homo sapiens, UniProt P25116); assay: Antagonist activity at human PAR-1 expressed in HEK293 cells assessed as reduction in TRAP induced calcium signal at 3 uM by FLIPR analysis; assay type: functional, cell-based
T1 sequence (P25116 whole entry): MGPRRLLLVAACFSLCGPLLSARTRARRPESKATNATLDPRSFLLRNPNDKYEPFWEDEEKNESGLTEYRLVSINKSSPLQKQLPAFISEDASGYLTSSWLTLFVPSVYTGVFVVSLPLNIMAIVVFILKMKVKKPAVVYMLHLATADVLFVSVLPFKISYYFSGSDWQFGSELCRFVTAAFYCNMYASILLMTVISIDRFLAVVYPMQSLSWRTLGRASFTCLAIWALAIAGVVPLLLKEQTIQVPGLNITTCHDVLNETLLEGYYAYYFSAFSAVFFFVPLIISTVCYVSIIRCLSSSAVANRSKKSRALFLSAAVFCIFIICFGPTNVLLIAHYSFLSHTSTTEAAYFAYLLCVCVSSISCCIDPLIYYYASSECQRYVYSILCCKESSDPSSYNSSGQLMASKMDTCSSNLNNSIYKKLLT

[2] = MRT in rat at 3 mg/kg, iv; assay type: ADME, organism-based; settings: in vivo
[3] = MRT in intravenously dosed dog; assay type: ADME, organism-based, Canis lupus familiaris; settings: in vivo, iv
[4] = Oral bioavailability in cynomolgus monkey; assay type: ADME, organism-based, Macaca fascicularis; settings: in vivo
[5] = Plasma protein binding in dog assessed as unbound fraction; assay type: ADME, cell-free, Canis lupus familiaris
[6] = Clearance in mouse hepatocyte measured per 10^6 cells; assay type: ADME, cell-based; settings: hepatocytes
[7] = Clearance in rat at 3 mg/kg, iv; assay type: ADME, organism-based; settings: in vivo
[8] = Ex vivo inhibition of PAR-1 in cynomolgus monkey whole blood assessed as inhibition of TRAP-induced platelet aggregation at 1 mg/kg, po measured after 24 hrs; assay type: functional; settings: Macaca fascicularis
[9] = Unbound volume of distribution in intravenously dosed dog; assay type: ADME, organism-based, Canis lupus familiaris; settings: in vivo, iv
[10] = Apparent permeability in MDCKII-LE cells; assay type: ADME, cell-based, Canis lupus familiaris; settings: dog, MDCK
[11] = Unbound clearance in intravenously dosed dog; assay type: ADME, organism-based, Canis lupus familiaris; settings: in vivo, iv
[12] = Clearance in rat hepatocyte measured per 10^6 cells; assay type: ADME, cell-based; settings: hepatocytes
[13] = target: T2, Voltage-gated inwardly rectifying potassium channel KCNH2 (Homo sapiens, UniProt Q12809); assay: Inhibition of [35S]MK-499 binding to hERG expressed in HEK293 cells; assay type: toxicity, cell-based
T2 sequence (Q12809 whole entry): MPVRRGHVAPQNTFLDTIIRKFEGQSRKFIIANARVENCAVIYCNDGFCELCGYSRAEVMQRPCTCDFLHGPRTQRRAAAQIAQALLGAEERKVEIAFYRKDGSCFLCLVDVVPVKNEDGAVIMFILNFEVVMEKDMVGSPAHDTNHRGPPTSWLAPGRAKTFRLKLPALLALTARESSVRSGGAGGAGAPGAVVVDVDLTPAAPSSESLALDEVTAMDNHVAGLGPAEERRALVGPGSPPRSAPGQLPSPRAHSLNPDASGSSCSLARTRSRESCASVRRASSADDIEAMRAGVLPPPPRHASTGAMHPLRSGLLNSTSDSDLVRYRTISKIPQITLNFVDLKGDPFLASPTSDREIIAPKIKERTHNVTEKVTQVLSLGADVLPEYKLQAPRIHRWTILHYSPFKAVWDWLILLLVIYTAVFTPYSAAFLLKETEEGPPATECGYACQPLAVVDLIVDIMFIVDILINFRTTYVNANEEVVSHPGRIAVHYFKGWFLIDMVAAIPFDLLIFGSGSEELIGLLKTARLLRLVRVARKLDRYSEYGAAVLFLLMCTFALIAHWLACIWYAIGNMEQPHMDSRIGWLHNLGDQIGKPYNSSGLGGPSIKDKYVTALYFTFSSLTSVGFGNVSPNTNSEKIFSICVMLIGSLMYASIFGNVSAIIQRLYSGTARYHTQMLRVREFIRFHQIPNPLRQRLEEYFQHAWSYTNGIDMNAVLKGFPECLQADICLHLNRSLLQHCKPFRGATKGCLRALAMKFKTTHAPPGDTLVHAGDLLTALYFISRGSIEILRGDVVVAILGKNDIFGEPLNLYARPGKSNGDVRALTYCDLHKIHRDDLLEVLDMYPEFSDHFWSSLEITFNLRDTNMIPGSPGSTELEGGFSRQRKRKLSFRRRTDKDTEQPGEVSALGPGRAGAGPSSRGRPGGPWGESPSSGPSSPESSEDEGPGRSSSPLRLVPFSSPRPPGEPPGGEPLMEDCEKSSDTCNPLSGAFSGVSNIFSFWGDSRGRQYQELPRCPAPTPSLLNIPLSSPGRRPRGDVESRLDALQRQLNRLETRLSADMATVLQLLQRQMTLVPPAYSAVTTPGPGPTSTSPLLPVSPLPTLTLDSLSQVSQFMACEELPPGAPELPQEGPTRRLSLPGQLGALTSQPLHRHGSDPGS

[14] = Clearance in human hepatocyte measured per 10^6 cells; assay type: ADME, cell-based; settings: hepatocytes
[15] = Plasma protein binding in rat assessed as unbound fraction; assay type: ADME, cell-free
[16] = Oral bioavailability in dog; assay type: ADME, organism-based, Canis lupus familiaris; settings: in vivo
[17] = Volume of distribution in rat at 0.3 mg/kg, iv; assay type: ADME, organism-based; settings: in vivo
[18] = Clearance in intravenously dosed dog; assay type: ADME, organism-based, Canis lupus familiaris; settings: in vivo, iv
[19] = Unbound clearance in rat at 3 mg/kg, iv; assay type: ADME, organism-based; settings: in vivo
[20] = Plasma protein binding in cynomolgus monkey assessed as unbound fraction; assay type: ADME, cell-free, Macaca fascicularis
[21] = MRT in intravenously dosed cynomolgus monkey; assay type: ADME, organism-based, Macaca fascicularis; settings: in vivo, iv
[22] = target: T2, Voltage-gated inwardly rectifying potassium channel KCNH2; assay: Inhibition of [35S]MK-499 binding to hERG expressed in HEK293 cells at 60 uM; assay type: toxicity, cell-based
[23] = Ex vivo inhibition of PAR-1 in cynomolgus monkey whole blood assessed as inhibition of TRAP-induced platelet aggregation at 0.3 mg/kg, po measured after 24 hrs; assay type: functional; settings: Macaca fascicularis
[24] = Clearance in dog hepatocyte measured per 10^6 cells; assay type: ADME, cell-based, Canis lupus familiaris; settings: hepatocytes
[25] = Unbound volume of distribution in rat at 3 mg/kg, iv; assay type: ADME, organism-based; settings: in vivo
[26] = target: P-glycoprotein (ABCB1) (Homo sapiens, UniProt P08183); assay: Effect on human P-glycoprotein expressed in MDCK cells assessed as efflux ratio of apparent permeability across basolateral to apical side over apical to basolateral side (reference value: 0.6 to 0.8); assay type: ADME, cell-based, MDCKII-LE; settings: MDCK-MDR1
Sequence of P-glycoprotein (ABCB1) (P08183 whole entry): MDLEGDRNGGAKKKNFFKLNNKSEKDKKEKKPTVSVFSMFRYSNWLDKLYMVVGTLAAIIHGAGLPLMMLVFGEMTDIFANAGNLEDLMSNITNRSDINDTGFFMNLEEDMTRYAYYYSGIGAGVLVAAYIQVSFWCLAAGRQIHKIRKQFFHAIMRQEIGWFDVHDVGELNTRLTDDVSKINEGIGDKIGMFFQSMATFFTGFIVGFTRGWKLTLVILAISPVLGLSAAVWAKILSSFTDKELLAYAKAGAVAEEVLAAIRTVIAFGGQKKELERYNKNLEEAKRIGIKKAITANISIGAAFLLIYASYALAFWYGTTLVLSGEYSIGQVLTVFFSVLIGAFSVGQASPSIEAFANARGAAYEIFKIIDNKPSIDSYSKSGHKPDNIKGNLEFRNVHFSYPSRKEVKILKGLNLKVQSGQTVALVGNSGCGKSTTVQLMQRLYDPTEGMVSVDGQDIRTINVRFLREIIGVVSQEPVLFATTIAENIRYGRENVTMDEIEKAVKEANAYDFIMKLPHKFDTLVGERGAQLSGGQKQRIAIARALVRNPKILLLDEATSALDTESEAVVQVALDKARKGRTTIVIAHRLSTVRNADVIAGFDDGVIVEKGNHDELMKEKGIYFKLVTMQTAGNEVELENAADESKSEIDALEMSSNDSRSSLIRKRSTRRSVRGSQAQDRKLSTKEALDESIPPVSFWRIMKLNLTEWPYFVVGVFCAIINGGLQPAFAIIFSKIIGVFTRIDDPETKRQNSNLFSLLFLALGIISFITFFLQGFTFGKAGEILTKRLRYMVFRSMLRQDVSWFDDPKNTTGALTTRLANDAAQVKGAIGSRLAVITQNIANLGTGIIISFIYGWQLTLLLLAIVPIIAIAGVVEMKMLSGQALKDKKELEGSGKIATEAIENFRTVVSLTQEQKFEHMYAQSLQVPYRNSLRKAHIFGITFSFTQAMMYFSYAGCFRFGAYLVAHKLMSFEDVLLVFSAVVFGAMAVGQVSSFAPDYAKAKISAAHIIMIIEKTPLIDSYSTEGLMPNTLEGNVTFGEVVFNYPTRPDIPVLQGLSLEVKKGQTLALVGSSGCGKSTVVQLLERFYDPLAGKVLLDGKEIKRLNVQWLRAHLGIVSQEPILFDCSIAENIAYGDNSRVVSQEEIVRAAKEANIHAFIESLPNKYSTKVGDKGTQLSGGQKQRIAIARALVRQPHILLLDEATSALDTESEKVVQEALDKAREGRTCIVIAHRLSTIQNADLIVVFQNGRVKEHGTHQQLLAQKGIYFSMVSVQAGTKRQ

[27] = tested on: P-glycoprotein; assay: Effect on rat P-glycoprotein expressed in MDCK cells assessed as efflux ratio of apparent permeability across basolateral to apical side over apical to basolateral side (reference value: 0.6 to 0.8); assay type: ADME, cell-based, MDCKII-LE; settings: MDCK-MDR1
[28] = Volume of distribution in intravenously dosed cynomolgus monkey; assay type: ADME, organism-based, Macaca fascicularis; settings: in vivo, iv
[29] = Clearance in intravenously dosed cynomolgus monkey; assay type: ADME, organism-based, Macaca fascicularis; settings: in vivo, iv
[30] = Unbound volume of distribution in intravenously dosed cynomolgus monkey; assay type: ADME, organism-based, Macaca fascicularis; settings: in vivo, iv
[31] = Oral bioavailability in rat; assay type: ADME, organism-based; settings: in vivo
[32] = Unbound clearance in intravenously dosed cynomolgus monkey; assay type: ADME, organism-based, Macaca fascicularis; settings: in vivo, iv
[33] = MRT in rat at 1 mg/kg, iv; assay type: ADME, organism-based; settings: in vivo
[34] = MRT in cynomolgus monkey at 0.3 mg/kg, po; assay type: ADME, organism-based, Macaca fascicularis; settings: in vivo
[35] = Oral bioavailability in cynomolgus monkey at 1 mg/kg,; assay type: ADME, organism-based, Macaca fascicularis; settings: in vivo
[36] = Dose normalized AUC in Sprague-Dawley rat at 30 mg/kg, po; assay type: ADME, organism-based; settings: in vivo
[37] = Dose normalized AUC in Sprague-Dawley rat at 10 mg/kg, po; assay type: ADME, organism-based; settings: in vivo
[38] = MRT in dog at 0.3 mg/kg, iv; assay type: ADME, organism-based, Canis lupus familiaris; settings: in vivo
[39] = Oral bioavailability in rat at 10 mg/kg; assay type: ADME, organism-based; settings: in vivo
[40] = Cmax in Sprague-Dawley rat at 30 mg/kg, po; assay type: ADME, organism-based; set-up: route oral, dose 30 mg/kg; settings: in vivo
[41] = Cmax in Sprague-Dawley rat at 3 mg/kg, po; assay type: ADME, organism-based; set-up: route oral, dose 3 mg/kg; settings: in vivo
[42] = AUC in Sprague-Dawley rat at 3 mg/kg, po; assay type: ADME, organism-based; set-up: dose 3 mg/kg; settings: in vivo
[43] = Toxicity in rat assessed as non-toxic AUC for tissue toxicity at 30 mg/kg; assay type: organism-based; settings: in vivo
[44] = Dose normalized Cmax in Sprague-Dawley rat at 30 mg/kg, po; assay type: ADME, organism-based; settings: in vivo
[45] = Clearance in dog at 0.3 mg/kg, iv; assay type: ADME, organism-based, Canis lupus familiaris; settings: in vivo
[46] = MRT in cynomolgus monkey at 1 mg/kg, iv; assay type: ADME, organism-based, Macaca fascicularis; settings: in vivo
[47] = Toxicity in rat assessed as non-toxic AUC for liver bioactivation at 30 mg/kg; assay type: organism-based; settings: in vivo
[48] = Unbound volume of distribution in cynomolgus monkey at 0.3 mg/kg, iv; assay type: ADME, organism-based, Macaca fascicularis; settings: in vivo
[49] = AUC in Sprague-Dawley rat at 50 mg/kg, po; assay type: ADME, organism-based; set-up: dose 50 mg/kg; settings: in vivo
[50] = Dose normalized AUC in Sprague-Dawley rat at 3 mg/kg, po; assay type: ADME, organism-based; settings: in vivo
[51] = Oral bioavailability in dog at 1 mg/kg; assay type: ADME, organism-based, Canis lupus familiaris; settings: in vivo
[52] = Unbound clearance in cynomolgus monkey at 0.3 mg/kg, iv; assay type: ADME, organism-based, Macaca fascicularis; settings: in vivo
[53] = Cmax in Sprague-Dawley rat at 10 mg/kg, po; assay type: ADME, organism-based; set-up: route oral, dose 10 mg/kg; settings: in vivo
[54] = Dose normalized AUC in Sprague-Dawley rat at 50 mg/kg, po; assay type: ADME, organism-based; settings: in vivo
[55] = Dose normalized Cmax in Sprague-Dawley rat at 3 mg/kg, po; assay type: ADME, organism-based; settings: in vivo
[56] = Clearance in cynomolgus monkey at 0.3 mg/kg, iv; assay type: ADME, organism-based, Macaca fascicularis; settings: in vivo
[57] = Volume of distribution in dog at 0.3 mg/kg, iv; assay type: ADME, organism-based, Canis lupus familiaris; settings: in vivo
[58] = AUC in Sprague-Dawley rat at 30 mg/kg, po; assay type: ADME, organism-based; set-up: dose 30 mg/kg; settings: in vivo
[59] = Dose normalized Cmax in Sprague-Dawley rat at 10 mg/kg, po; assay type: ADME, organism-based; settings: in vivo
[60] = Unbound volume of distribution in dog at 0.3 mg/kg, iv; assay type: ADME, organism-based, Canis lupus familiaris; settings: in vivo
[61] = Cmax in Sprague-Dawley rat at 50 mg/kg, po; assay type: ADME, organism-based; set-up: route oral, dose 50 mg/kg; settings: in vivo
[62] = AUC in Sprague-Dawley rat at 10 mg/kg, po; assay type: ADME, organism-based; set-up: dose 10 mg/kg; settings: in vivo
[63] = Dose normalized Cmax in Sprague-Dawley rat at 50 mg/kg, po; assay type: ADME, organism-based; settings: in vivo
[64] = Volume of distribution in cynomolgus monkey at 0.3 mg/kg, iv; assay type: ADME, organism-based, Macaca fascicularis; settings: in vivo

IC50 [1]: 134 nM
Compound: CC1=NO[C@@]2(C1)C[C@H]1C(=O)O[C@H](C)[C@H]1[C@@H](c1ccc(-c3cccc(F)c3)cn1)[C@@H]2C

MRT [2]: 0.44 h | MRT [3]: 6.2 h | bioavailability [4]: 13% | fraction unbound [5]: 0.05 | CLint [6]: 19.7 µL/min/1e6 cells | clearance [7]: 46 mL/min/kg | Vdu [9]: 42 L/kg | Papp [10]: 32.3 ×10⁻⁶ cm/s | CL free [11]: 112 mL/min/kg | CLint [12]: 17.2 µL/min/1e6 cells | CLint [14]: 7.3 µL/min/1e6 cells | fraction unbound [15]: 0.06 | bioavailability [16]: 19% | Vd [17]: 1.2 L/kg | IC50 [1]: 7 nM | clearance [18]: 5.6 mL/min/kg | CL free [19]: 742 mL/min/kg | fraction unbound [20]: 0.06 | MRT [21]: 1.8 h | CLint [24]: 11.8 µL/min/1e6 cells | Vdu [25]: 19 L/kg | efflux ratio [26]: > 65 | efflux ratio [27]: > 71 | Vd [28]: 0.81 L/kg | clearance [29]: 7.7 mL/min/kg | Vdu [30]: 15 L/kg | bioavailability [31]: 10% | CL free [32]: 140 mL/min/kg
Compound: CCNC(=O)N1C[C@H]2[C@H](C)[C@@H](C)[C@H](/C=C/c3ccc(-c4ccccc4C#N)cn3)[C@@H]3[C@@H](C)OC(=O)[C@@]32C1
inhibition in vivo at 1 mg/kg [8]: 100% | IC50 [13]: 9200 nM | IC50 [22]: 9000 nM | inhibition in vivo at 0.3 mg/kg [23]: 100%

IC50 [1]: 8 nM | MRT [33]: 5.5 h | MRT [34]: > 20 h
Compound: CC[C@H]1[C@H](/C=C/c2ccc(-c3ccccc3C#N)cn2)[C@@H]2[C@@H](C)OC(=O)[C@]2(O)CC1(F)F
IC50 [13]: 17000 nM

bioavailability [35]: 37% | MRT [2]: 1.9 h | AUCt/dose [36]: 3.2 µM·h | AUCt/dose [37]: 1.2 µM·h | MRT [38]: 18 h | bioavailability [39]: 54% | Cmax [40]: 12 µM | Cmax [41]: 0.36 µM | fraction unbound [5]: 0.15 | CLint [6]: 3.3 µL/min/1e6 cells | AUC [42]: 1.31 µM·h | clearance [7]: 31 mL/min/kg | Papp [10]: 38.3 ×10⁻⁶ cm/s | Cmax/dose [44]: 0.4 µM | CLint [12]: 13 µL/min/1e6 cells | clearance [45]: 5.9 mL/min/kg | MRT [46]: 24 h | CLint [14]: 1.1 µL/min/1e6 cells | fraction unbound [15]: 0.09 | Vdu [48]: 17 L/kg | AUC [49]: 191 µM·h | Vd [17]: 3.6 L/kg | AUCt/dose [50]: 0.44 µM·h | bioavailability [51]: 100% | IC50 [1]: 7 nM | CL free [52]: 12 mL/min/kg | CL free [19]: 352 mL/min/kg | Cmax [53]: 5.6 µM | AUCt/dose [54]: 3.8 µM·h | Cmax/dose [55]: 0.12 µM | fraction unbound [20]: 0.15 | clearance [56]: 12 mL/min/kg | Vd [57]: 6.3 L/kg | CLint [24]: 2 µL/min/1e6 cells | Vdu [25]: 41 L/kg | AUC [58]: 97 µM·h | MRT [33]: 1.4 h | Cmax/dose [59]: 0.56 µM | Vdu [60]: 41 L/kg | Cmax [61]: 28 µM | AUC [62]: 12.1 µM·h | Cmax/dose [63]: 0.56 µM | Vd [64]: 2.5 L/kg
Compound: C[C@H]1OC(=O)[C@]2(N)CC(F)(F)[C@@H](C)[C@H](/C=C/c3ccc(-c4ccccc4C#N)cn3)[C@H]12
AUC [43]: 44 µM·h | inhibition in vivo at 1 mg/kg [8]: 100% | AUC [47]: 44 µM·h | inhibition in vivo at 0.3 mg/kg [23]: 100%
